This is an account of results in US9011867B2, “Use of specific peptides in the preparation of a medicament for the treatment of monoclonal gammopathy of undetermined significance (MGUS) or of smoldering multiple myeloma (SMM)” (Ruprecht-Karls-Universitat Heidelberg, priority 2009, dated 2015).

Assay [1] deals with Melan-A analogue specific T-cells. As to the kind of experiment: IFN-γ ELISpot-assay with peptide pulsed T2 cells, Melan-A analogue specific T-cells as effectors. It counts as cell-based, human. The following applies: for activation of Melan-A analogue specific T-cells by peptide pulsed T2 cells (IFN-γ ELISpot): T-cells from HLA-A2+ HD, ET ratio 2.5/1, FIG. 1A.
Assay [2] concerns HM1.24aa22-30-specific T-cells. As to the kind of experiment: IFN-γ ELISpot-assay with peptide pulsed T2 cells, HM1.24aa22-30-specific T-cells as effectors. It counts as cell-based, human. The settings on record: T-cells from HLA-A2+ HD; ET ratio 2.5/1; FIG. 1A.

For the sequence “LLLGIGILV (peptide (HM 1.24)) [HM1.24aa22-30]”, the “activation of Melan-A analogue specific T-cells by peptide pulsed T2 cells (IFN-γ ELISpot)” value in assay [1] is “strong activation”. Also, in assay [1] (T-cells from MM patient no. 10, FIG. 4B), the “IFN-γ production of Melan-A analogue specific T-cells activated by peptide pulsed T2 cells” value is listed as “produced IFN-γ”.
Turning to VLLGLSALL [HM1.24aa171-179], in assay [1], the “activation of Melan-A analogue specific T-cells by peptide pulsed T2 cells (IFN-γ ELISpot)” value is listed as “activated neither”. In addition, in assay [2], the “activation of HM1.24aa22-30-specific T-cells by peptide pulsed T2 cells (IFN-γ ELISpot)” value was “activated neither”.
